Experiments:
[1] = system: TLESRs; experiment: Screening for compounds active against TLESR, standard model (nutrient meal followed by air insufflation at 40 ml/min); format: in vivo, Adult Labrador retrievers
Procedure: (§1) Adult Labrador retrievers of both genders, trained to stand in a Pavlov sling, are used. Mucosa-to-skin esophagostomies are formed and the dogs are allowed to recover completely before any experiments are done.
(§2) In brief, after fasting for approximately 17 h with free supply of water, a multilumen sleeve/sidehole assembly (Dentsleeve, Adelaide, South Australia) is introduced through the esophagostomy to measure gastric, lower esophageal sphincter (LES) and esophageal pressures. The assembly is perfused with water using a low-compliance manometric perfusion pump (Dentsleeve, Adelaide, South Australia). An air-perfused tube is passed in the oral direction to measure swallows, and an antimony electrode monitored pH, 3 cm above the LES. All signals are amplified and acquired on a personal computer at 10 Hz.
When a baseline measurement free from fasting gastric/LES phase III motor activity has been obtained, placebo (0.9% NaCl) or test compound is administered intravenously (i.v., 0.5 ml/kg) in a foreleg vein. Ten min after i.v. administration, a nutrient meal (10% peptone, 5% D-glucose, 5% Intralipid, pH 3.0) is infused into the stomach through the central lumen of the assembly at 100 ml/min to a final volume of 30 ml/kg. Immediately following the meal, air is insufflated at 40 ml/min. In an alternative model (Barostat model), the infusion of the nutrient meal is followed by air infusion at a rate of 500 ml/min until a intragastric pressure of 10±1 mmHg is obtained. The pressure is then maintained at this level throughout the experiment using the infusion pump for further air infusion or for venting air from the stomach. The experimental time from start of nutrient infusion to end of air insufflation is 45 min. The procedure has been validated as a reliable means of triggering TLESRs.
TLESRs is defined as a decrease in lower esophageal sphincter pressure (with reference to intragastric pressure) at a rate of >1 mmHg/s. The relaxation should not be preceded by a pharyngeal signal ≤2s before its onset in which case the relaxation is classified as swallow-induced. The pressure difference between the LES and the stomach should be less than 2 mmHg, and the duration of the complete relaxation longer than 1 s.
2-Methyl-6-(phenylethynyl)-pyridine (MPEP) was prepared according to the procedure described by K. Sonogashira et al. in Tetrahedron Lett. (1975), 50, 4467-4470. After purification by column chromatography (SiO2), the hydrochloride salt (the hydrochloride salt of 2-methyl-6-(phenylethynyl)-pyridine is also commercially available from e.g. Tocris) was prepared by introducing HCl(g) to an ice-cooled Et2O-solution of the product. The hydrochloride salt of MPEP was tested on adult Labrador retrievers of both genders in accordance with the test model described above.
Inhibition of the number of TLESRs was calculated with regard to the five preceding control experiments for each dog, and the results as set out in Tables 1.1 and 1.2 below were achieved. Table 1.1 - Standard model

[2] = system: TLESRs; experiment: Screening for compounds active against TLESR, Barostat model (nutrient meal followed by air infusion, intragastric pressure held at 10±1 mmHg); format: in vivo, Adult Labrador retrievers; details: inhibition of the number of TLESRs, infusion during 55 min
Procedure: as §1, §2
Ten min after i.v. administration, a nutrient meal (10% peptone, 5% D-glucose, 5% Intralipid, pH 3.0) is infused into the stomach through the central lumen of the assembly at 100 ml/min to a final volume of 30 ml/kg. Immediately following the meal, air is insufflated at 40 ml/min. In an alternative model (Barostat model), the infusion of the nutrient meal is followed by air infusion at a rate of 500 ml/min until a intragastric pressure of 10±1 mmHg is obtained. […]

| SMILES | % INHIBITION ± SEM (N) ([1]; inhibition of the number of TLESRs vs five preceding control experiments per dog, dose 1.4 µmol/kg i.v., N=4 dogs) | % INHIBITION ± SEM (N) ([1]; inhibition of the number of TLESRs vs five preceding control experiments per dog, dose 4.3 µmol/kg i.v., N=4 dogs) | % INHIBITION ± SEM (N) ([1]; inhibition of the number of TLESRs vs five preceding control experiments per dog, dose 8.7 µmol/kg i.v., N=3 dogs) | % INHIBITION ± SEM (N) ([1]; inhibition of the number of TLESRs, dose 4 µmol/kg/h, infusion during 60 min, N=4 dogs) | % INHIBITION ± SEM (N) ([1]; inhibition of the number of TLESRs, dose 6 µmol/kg/h, infusion during 60 min, N=2 dogs) | % INHIBITION ± SEM (N) ([2]; dose 1.1 µmol/kg/h, N=4 dogs) | % INHIBITION ± SEM (N) ([2]; dose 2.2 µmol/kg/h, N=2 dogs) |
| --- | --- | --- | --- | --- | --- | --- | --- |
| Cc1cccc(C#Cc2ccccc2)n1 [MPEP, 2-Methyl-6-(phenylethynyl)-pyridine] | 30 ± 5 (4) % | 57 ± 8 (4) % | 59 ± 11 (3) % | 32 ± 13 (4) % | 43 ± 3 (2) % |  |  |
| COCc1cc(C#N)cc(-c2nc(-c3ccc(F)cn3)no2)c1 [3-[3-(5-fluoropyridin-2-yl)-1,2,4-oxadiazol-5-yl]-5-(methoxymethyl)benzonitrile] |  |  |  |  |  | 58 ± 11 (4) % | 83 ± 17 (2) % |
